{"source": "ChEMBL document CHEMBL4004816", "about": "“Complementarity of DFT Calculations, NMR Anisotropy, and ECD for the Configurational Analysis of Brevipolides K-O from Hyptis brevipes” (J Nat Prod, 2017)", "format_in_all_cases": "functional, cell-based", "key": {"MCF7": {"test_system": "MCF7", "test": "Cytotoxicity against human MCF7 cells assessed as growth inhibition after 72 hrs by SRB assay", "conditions": "MCF7, 72 h"}, "PC-3": {"test_system": "PC-3", "test": "Cytotoxicity against human PC3 cells assessed as growth inhibition after 72 hrs by SRB assay", "conditions": "PC-3, 72 h"}, "HCT-15": {"test_system": "HCT-15", "test": "Cytotoxicity against human HCT15 cells assessed as growth inhibition after 72 hrs by SRB assay", "conditions": "HCT-15, 72 h"}, "HEp-2": {"test_system": "HEp-2", "test": "Cytotoxicity against human Hep2 cells assessed as growth inhibition after 72 hrs by SRB assay", "conditions": "HEp-2, 72 h"}, "KB": {"test_system": "KB", "test": "Cytotoxicity against human KB cells assessed as growth inhibition after 72 hrs by SRB assay"}, "HeLa": {"test_system": "HeLa", "test": "Cytotoxicity against human HeLa cells assessed as growth inhibition after 72 hrs by SRB assay"}}}
{"molecule": "C[C@H](OC(=O)/C=C/c1ccc(O)c(O)c1)[C@@H]1CC[C@H]([C@H](O)[C@H]2CC=CC(=O)O2)O1", "values": [{"measurement": "IC50", "setting": "MCF7", "value": "> 10", "unit": "µM"}, {"measurement": "IC50", "setting": "PC-3", "value": "> 10", "unit": "µM"}, {"measurement": "IC50", "setting": "HCT-15", "value": "> 10", "unit": "µM"}, {"measurement": "IC50", "setting": "HEp-2", "value": 9.4, "unit": "µM"}, {"measurement": "IC50", "setting": "KB", "value": 4.9, "unit": "µM"}, {"measurement": "IC50", "setting": "HeLa", "value": 6.9, "unit": "µM"}]}
{"molecule": "C[C@H](OC(=O)/C=C/c1ccc(O)cc1)[C@@H]1CC[C@H]([C@H](O)[C@H]2CC=CC(=O)O2)O1", "values": [{"measurement": "IC50", "setting": "MCF7", "value": "> 10", "unit": "µM"}, {"measurement": "IC50", "setting": "PC-3", "value": "> 10", "unit": "µM"}, {"measurement": "IC50", "setting": "HCT-15", "value": "> 10", "unit": "µM"}, {"measurement": "IC50", "setting": "HEp-2", "value": "> 10", "unit": "µM"}, {"measurement": "IC50", "setting": "KB", "value": 3.6, "unit": "µM"}, {"measurement": "IC50", "setting": "HeLa", "value": 9.5, "unit": "µM"}]}
{"molecule": "CC[C@]1(O)C[C@@H]2CN(CCc3c([nH]c4ccccc34)[C@@](C(=O)OC)(c3cc4c(cc3OC)N(C)[C@H]3[C@@](O)(C(=O)OC)[C@H](OC(C)=O)[C@]5(CC)C=CCN6CC[C@]43[C@@H]65)C2)C1", "note": "[VINBLASTINE]", "values": [{"measurement": "IC50", "setting": "MCF7", "value": 0.004, "unit": "µM"}, {"measurement": "IC50", "setting": "PC-3", "value": 0.001, "unit": "µM"}, {"measurement": "IC50", "setting": "HCT-15", "value": 0.002, "unit": "µM"}, {"measurement": "IC50", "setting": "HEp-2", "value": 0.007, "unit": "µM"}, {"measurement": "IC50", "setting": "KB", "value": 0.006, "unit": "µM"}, {"measurement": "IC50", "setting": "HeLa", "value": 0.001, "unit": "µM"}]}
{"molecule": "COc1ccc(/C=C/C(=O)O[C@@H](C)[C@@H]2CC[C@H]([C@H](O)[C@H]3CC=CC(=O)O3)O2)cc1", "values": [{"measurement": "IC50", "setting": "MCF7", "value": "> 10", "unit": "µM"}, {"measurement": "IC50", "setting": "PC-3", "value": 7.5, "unit": "µM"}, {"measurement": "IC50", "setting": "HCT-15", "value": "> 10", "unit": "µM"}, {"measurement": "IC50", "setting": "HEp-2", "value": 5.7, "unit": "µM"}, {"measurement": "IC50", "setting": "KB", "value": 1.7, "unit": "µM"}, {"measurement": "IC50", "setting": "HeLa", "value": 6, "unit": "µM"}]}
{"molecule": "C[C@H](OC(=O)/C=C\\c1ccc(O)cc1)[C@@H]1CC[C@H]([C@H](O)[C@H]2CC=CC(=O)O2)O1", "values": [{"measurement": "IC50", "setting": "MCF7", "value": 9.3, "unit": "µM"}, {"measurement": "IC50", "setting": "PC-3", "value": 8.8, "unit": "µM"}, {"measurement": "IC50", "setting": "HCT-15", "value": "> 10", "unit": "µM"}, {"measurement": "IC50", "setting": "HEp-2", "value": 7.7, "unit": "µM"}, {"measurement": "IC50", "setting": "KB", "value": 7.5, "unit": "µM"}, {"measurement": "IC50", "setting": "HeLa", "value": 3.3, "unit": "µM"}]}
{"molecule": "COc1ccc(/C=C\\C(=O)O[C@@H](C)[C@@H]2CC[C@H]([C@H](O)[C@H]3CC=CC(=O)O3)O2)cc1", "values": [{"measurement": "IC50", "setting": "MCF7", "value": "> 10", "unit": "µM"}, {"measurement": "IC50", "setting": "PC-3", "value": 10, "unit": "µM"}, {"measurement": "IC50", "setting": "HCT-15", "value": "> 10", "unit": "µM"}, {"measurement": "IC50", "setting": "HEp-2", "value": "> 10", "unit": "µM"}, {"measurement": "IC50", "setting": "KB", "value": 9.5, "unit": "µM"}, {"measurement": "IC50", "setting": "HeLa", "value": 4.2, "unit": "µM"}]}
